Converted amounts (≈) assume the structure as drawn. “And” between values parts separate entries of the source, which are not always exact repeats. Equal entries are not always repeated.
What was measured:
[1] = NO scavenging activity (sodium nitroprusside / Griess reagent); conditions: for Nitric Oxide Percentage Scavenging Activity at 25 µg/mL / Nitric Oxide Percentage Scavenging Activity at 50 µg/mL / Nitric Oxide Percentage Scavenging Activity at 100 µg/mL: mean ± SD of three parallel measurements; for IC50 (nitric oxide scavenging): NO scavenging
urease = urease (Canavalia ensiformis, UniProt P07374); assay: biochemical; assay type: biochemical; conditions: for inhibition at 25 µg/mL: read-out: Percentage inhibition at 25 µg/mL; for inhibition at 50 µg/mL: read-out: Percentage inhibition at 50 µg/mL
urease, sequence (P07374 whole entry, looked up): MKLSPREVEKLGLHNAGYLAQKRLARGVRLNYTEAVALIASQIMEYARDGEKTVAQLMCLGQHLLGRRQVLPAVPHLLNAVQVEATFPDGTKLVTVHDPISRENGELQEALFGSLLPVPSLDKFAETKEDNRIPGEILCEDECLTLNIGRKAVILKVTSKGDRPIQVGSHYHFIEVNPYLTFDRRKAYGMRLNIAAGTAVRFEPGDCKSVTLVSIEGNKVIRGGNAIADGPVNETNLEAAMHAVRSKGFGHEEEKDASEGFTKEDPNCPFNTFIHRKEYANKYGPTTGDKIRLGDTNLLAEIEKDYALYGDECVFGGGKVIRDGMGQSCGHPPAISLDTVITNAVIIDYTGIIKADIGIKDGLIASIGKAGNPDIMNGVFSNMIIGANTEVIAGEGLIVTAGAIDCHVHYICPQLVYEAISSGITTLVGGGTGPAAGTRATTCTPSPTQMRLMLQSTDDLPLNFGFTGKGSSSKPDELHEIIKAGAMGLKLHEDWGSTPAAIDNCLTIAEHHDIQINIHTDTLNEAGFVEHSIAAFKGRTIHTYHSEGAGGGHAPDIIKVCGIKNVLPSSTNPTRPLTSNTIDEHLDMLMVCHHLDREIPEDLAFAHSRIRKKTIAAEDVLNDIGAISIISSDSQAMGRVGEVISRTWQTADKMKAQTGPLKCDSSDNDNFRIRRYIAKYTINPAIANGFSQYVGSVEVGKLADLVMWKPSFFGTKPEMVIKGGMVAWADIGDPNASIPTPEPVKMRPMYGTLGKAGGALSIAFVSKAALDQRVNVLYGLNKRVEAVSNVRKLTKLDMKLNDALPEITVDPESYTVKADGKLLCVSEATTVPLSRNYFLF
Description: The newly synthesized compounds 3a–e were examined for their urease inhibition activities in vitro at 25 and 50 μg/mL concentrations. […] Thus, enzyme stops catalyzing hydrolysis and the activity of the enzyme is inhibited.
The urease inhibitory activity of the synthesized compounds 2, 3a–e, 4 was determined as follows: phosphate buffer (pH 7, 200 µL) containing 1 unit of enzyme was mixed with phosphate buffer (230 µL) and of a particular stock solution (20 µL, thiourea or the test compound). The reaction mixture was incubated at 25 °C for 5 min. After the incubation period urea stock solution (400 µL, 20 mM) was added. Calibration mixture was prepared with no urea solution. All test tubes were further incubated at 40 °C for the action of urease for 10 min. This was followed by the addition of phenol hypochlorite reagent (1150 µL). Tubes were again incubated at 56 °C for 25 min. […] The IC50 values were determined using the EZ-fit kinetic data base.

| Structure (SMILES) | melting point [°C] | Nitric Oxide Percentage Scavenging Activity at 25 µg/mL [1] [%] | Nitric Oxide Percentage Scavenging Activity at 50 µg/mL [1] | Nitric Oxide Percentage Scavenging Activity at 100 µg/mL [1] | IC50 (nitric oxide scavenging) [1] [µg/mL] | IC50 (urease) [µM] | inhibition at 25 µg/mL (urease) [%] | inhibition at 50 µg/mL (urease) [%] | IC50 (urease inhibition) (urease; urease, EZ-fit) [µg/mL] |
| --- | --- | --- | --- | --- | --- | --- | --- | --- | --- |
| Nc1nc2ccc(-c3cc(C(F)(F)F)cc(C(F)(F)F)c3)cc2s1 [Compound 3d, 6-(3,5-bis(Triflouromethyl)phenyl)benzo[d]thiazole-2-amine] | 180 to 182 | 10 ± 0.01 | 23 ± 0.009% | 63 ± 0.009% | 83.75 (≈ 231 µM) | 79.7 | 43 ± 0.007 | 88.6 ± 0.002 | – |
| Nc1nc2ccc(-c3ccc(Cl)cc3)cc2s1 [Compound 3b, 6-(4-Chlorophenyl)benzo[d]thiazole-2-amine] | 194 to 196 | 17 ± 0.006 | 34 ± 0.005% | 66 ± 0.005% | 75 (≈ 288 µM) | 117 | 39 ± 0.0012 | 88.19 ± 0.007 | – |
| O=C1O[C@H]([C@@H](O)CO)C(O)=C1O [Ascorbic acid, reference compound] | – | 40.5 ± 0.01 | 70.50 ± 0.91% | 99.5 ± 0.91% | – | – | – | – | – |
| Nc1nc2ccc(Br)cc2s1 [Compound 2, 6-Bromobenzo[d]thiazole-2-amine] | – | 20 ± 0.004 | 48 ± 0.0007% | 90 ± 0.007% and 90 ± 0.0007% | 57.8 (≈ 252 µM) | 124 | 43 ± 0.0034 | 95 ± 0.005 | – |
| COc1ccc(-c2ccc3nc(N)sc3c2)cc1 [Compound 3c, 6-(4-Methoxyphenyl)benzo[d]thiazole-2-amine] | 165 to 167 | 31 ± 0.022 | 67 ± 0.002% | – | 38.19 (≈ 149 µM) | 111 | 44 ± 0.005 | 86.24 ± 0.001 | – |
| CC(=O)Nc1nc2ccc(Br)cc2s1 [Compound 4, N-(6-Bromobenzo[d]thiazol-2-yl)acetamide] | – | – | – | – | – | 112 | 39 ± 0.001 | 89 ± 0.009 | – |
| Cc1ccc(-c2ccc3nc(N)sc3c2)cc1 [Compound 3a, 6-p-Tolylbenzo[d]thiazole-2-amine] | 184 to 186 | 24 ± 0.003 | 67 ± 0.009% and 56 ± 0.001% | 95 ± 0.001% | 38.19 (≈ 159 µM) | 113 | 46 ± 0.005 | 90.49 ± 0.002 | – |
| Nc1nc2ccc(-c3ccccc3)cc2s1 [Compound 3e, 6-Phenylbenzo[d]thiazole-2-amine] | – | 9 ± 0.007 | 22 ± 0.001% | 52 ± 0.001% | 96.66 (≈ 427 µM) | 116 | 48 ± 0.005 | 85 ± 0.002 | – |
| NC(N)=S [Thiourea, reference compound] | – | – | – | – | – | – | – | – | 34.65 (≈ 455 µM) |

Reference: PMC6269778, “Efficient Synthesis of 2-Amino-6-Arylbenzothiazoles via Pd(0) Suzuki Cross Coupling Reactions: Potent Urease Enzyme Inhibition and Nitric Oxide Scavenging Activities of the Products” (Molecules, 2013)
